Experimental data from patent US20240317735A1, “HYDROISOQUINOLINE OR HYDRONAPHTHYRIDINE COMPOUNDS FOR THE TREATMENT OF AUTOIMMUNE DISEASE” (Hoffmann-La Roche Inc., priority 2020, published 2024).

target: T1, human TLR8 (Homo sapiens, UniProt Q9NR97); experiment: HEK293-Blue-hTLR-8 cells assay (SEAP reporter, R848 stimulation); type: cell-based; settings: HEK293-Blue-hTLR8 cells, R848, 20 hrs; read-out: HEK/hTLR8 IC50
T1 construct: host or cells: HEK293 (HEK-Blue hTLR8)
T1 sequence (Q9NR97 27-1041): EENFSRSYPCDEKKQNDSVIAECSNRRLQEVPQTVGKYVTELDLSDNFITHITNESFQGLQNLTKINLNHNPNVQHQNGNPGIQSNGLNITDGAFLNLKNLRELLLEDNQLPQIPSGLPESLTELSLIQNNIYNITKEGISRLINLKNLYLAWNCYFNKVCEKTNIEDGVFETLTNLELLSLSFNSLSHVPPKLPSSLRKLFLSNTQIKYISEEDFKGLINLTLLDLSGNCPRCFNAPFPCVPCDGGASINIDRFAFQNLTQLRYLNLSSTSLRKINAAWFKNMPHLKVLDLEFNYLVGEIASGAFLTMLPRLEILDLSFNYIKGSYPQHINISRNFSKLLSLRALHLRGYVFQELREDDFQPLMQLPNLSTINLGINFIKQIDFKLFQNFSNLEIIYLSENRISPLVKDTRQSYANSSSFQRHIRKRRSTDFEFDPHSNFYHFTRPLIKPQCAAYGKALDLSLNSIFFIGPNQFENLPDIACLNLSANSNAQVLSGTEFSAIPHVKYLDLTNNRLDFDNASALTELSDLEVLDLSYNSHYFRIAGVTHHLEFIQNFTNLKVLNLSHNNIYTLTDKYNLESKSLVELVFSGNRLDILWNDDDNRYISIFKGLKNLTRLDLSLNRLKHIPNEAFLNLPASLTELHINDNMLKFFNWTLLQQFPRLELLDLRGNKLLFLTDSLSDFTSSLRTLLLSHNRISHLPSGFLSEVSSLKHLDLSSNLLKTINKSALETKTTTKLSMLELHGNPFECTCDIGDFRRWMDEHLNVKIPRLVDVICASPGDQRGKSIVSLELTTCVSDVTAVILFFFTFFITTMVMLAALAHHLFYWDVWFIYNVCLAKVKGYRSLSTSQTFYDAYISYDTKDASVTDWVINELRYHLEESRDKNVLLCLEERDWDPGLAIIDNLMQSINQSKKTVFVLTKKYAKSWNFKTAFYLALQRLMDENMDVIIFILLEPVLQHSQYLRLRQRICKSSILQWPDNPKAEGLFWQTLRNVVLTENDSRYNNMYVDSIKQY
Experimental: The following tests were carried out in order to determine the activity of the compounds of formula (I) and (Ia) in HEK293-Blue-hTLR-7/8/9 cells assay.
A stable HEK293-Blue-hTLR-8 cell line was purchased from InvivoGen (Cat. #: hkb-htlr8, San Diego, California, USA). These cells were originally designed for studying the stimulation of human TLR8 by monitoring the activation of NF-κB. A SEAP (secreted embryonic alkaline phosphatase) reporter gene was placed under the control of the IFN-β minimal promoter fused to five NF-κB and AP-1-binding sites. The SEAP was induced by activating NF-κB and AP-1 via stimulating HEK-Blue hTLR8 cells with TLR8 ligands. Therefore the reporter expression was declined by TLR8 antagonist under the stimulation of a ligand, such as R848, for incubation of 20 hrs. The cell culture supernatant SEAP reporter activity was determined using QUANTI-Blue™ kit (Cat. #: rep-qb1, Invivogen, San Diego, Ca, USA) at a wavelength of 640 nm, a detection medium that turns purple or blue in the presence of alkaline phosphatase.
HEK293-Blue-hTLR8 cells were incubated at a density of 250,000˜450,000 cells/mL in a volume of 170 μL in a 96-well plate in Dulbecco's Modified Eagle's medium (DMEM) containing 4.5 g/L glucose, […] penicillin, […], […] Normocin, 2 mM L-glutamine, 10% (v/v) heat-inactivated fetal bovine serum with addition of 20 μL test compound in a serial dilution in the presence of final DMSO at 1% and 10 μL of 60 uM R848 in above DMEM, perform incubation under 37° C. in a C02 incubator for 20 hrs. Then 20 μL of the supernatant from each well was incubated with 180 μL Quanti-blue substrate solution at 37° C. for 2 hrs and the absorbance was read at 620-655 nm using a spectrophotometer. The signaling pathway that TLR8 activation leads to downstream NF-κB activation has been widely accepted, and therefore similar reporter assay was modified for evaluating TLR8 antagonist.

Compared with `C[C@H]1CN(c2ccnc3c2cnn3C)Cc2ccc(OC[C@@H]3CNCCN3C=O)cc21` [Example 45, (2S)-2-[[(4R)-4-methyl-2-(1-methylpyrazolo[3,4-b]pyridin-4-yl)-3,4-dihydro-1H-isoquinolin-6-yl]oxymethyl]piperazine-1-carbaldehyde], `C[C@H]1CN(c2ccnc3c2cnn3C)Cc2ccc(N3CCNC(CO)C3)cc21` (stereo partly drawn) [Example 49, [4-[(4R)-4-methyl-2-(1-methylpyrazolo[3,4-b]pyridin-4-yl)-3,4-dihydro-1H-isoquinolin-6-yl]piperazin-2-yl]methanol] is 5-fold lower in IC50: 10 nM for the first, 2 nM for the second. The second is the more potent here.

First: C[C@H]1CN(c2ccnc3c2cnn3C)Cc2ccc(N3C[C@@H](N)[C@H](O)C3)cc21 [Example 46, trans-4-amino-1-[(4R)-4-methyl-2-(1-methylpyrazolo[3,4-b]pyridin-4-yl)-3,4-dihydro-1H-isoquinolin-6-yl]pyrrolidin-3-ol]
Second: Cc1cc(N2Cc3ccc(N4C[C@@H](N)[C@H](O)C4)cc3[C@@H](C)C2)c2cnn(C)c2n1 [Example 47, trans-4-amino-1-[(4R)-2-(1,6-dimethylpyrazolo[3,4-b]pyridin-4-yl)-4-methyl-3,4-dihydro-1H-isoquinolin-6-yl]pyrrolidin-3-ol]
The IC50 of the first is 2.3-fold higher: 7 nM for the first, 3 nM for the second. The second is the more potent here.

Compared with `Cc1cc(N2Cc3ccc(N4CC5(CNCCO5)C4)cc3[C@@H](C)C2)c2cnn(C)c2n1` [Example 48, 2-[(4R)-2-(1,6-dimethylpyrazolo[3,4-b]pyridin-4-yl)-4-methyl-3,4-dihydro-1H-isoquinolin-6-yl]-5-oxa-2,8-diazaspiro[3.5]nonane], `C[C@H]1CN(c2ccnc3c2cnn3C)Cc2ccc(N3CC4(CCNC4)CC3=O)cc21` (stereo partly drawn) [Example 52, 2-[(4R)-4-methyl-2-(1-methylpyrazolo[3,4-b]pyridin-4-yl)-3,4-dihydro-1H-isoquinolin-6-yl]-2,7-diazaspiro[4.4]nonan-3-one] is 2-fold lower in IC50: 6 nM for the first, 3 nM for the second. The second is the more potent here.

`C[C@H]1CN(c2ccnc3c2cnn3C)Cc2ccc(N3CCN[C@@H](CO)C3)cc21` [Example 50, [(2R)-4-[(4R)-4-methyl-2-(1-methylpyrazolo[3,4-b]pyridin-4-yl)-3,4-dihydro-1H-isoquinolin-6-yl]piperazin-2-yl]methanol] and `C[C@H]1CN(c2ccnc3c2cnn3C)Cc2ccc(N3CCN[C@H](CO)C3)cc21` [Example 51, [(2S)-4-[(4R)-4-methyl-2-(1-methylpyrazolo[3,4-b]pyridin-4-yl)-3,4-dihydro-1H-isoquinolin-6-yl]piperazin-2-yl]methanol] are within 1.5-fold of each other in IC50: 3 nM for the first, 4 nM for the second.

`Cc1cc(N2Cc3ccc(N4CCC(N)CC4)nc3[C@@H](C)C2)c2cnn(C)c2n1` [Example 58, 1-[(8S)-6-(1,6-dimethylpyrazolo[3,4-b]pyridin-4-yl)-8-methyl-7,8-dihydro-5H-1,6-naphthyridin-2-yl]piperidin-4-amine] and `Cc1cc(N2Cc3ccc(N4CCC(N(C)C)CC4)nc3[C@@H](C)C2)c2cnn(C)c2n1` [Example 60, N,N-dimethyl-1-[(8S)-6-(1,6-dimethylpyrazolo[3,4-b]pyridin-4-yl)-8-methyl-7,8-dihydro-5H-1,6-naphthyridin-2-yl]piperidin-4-amine] are within 1.5-fold of each other in IC50: 0.4 nM for the first, 0.5 nM for the second.

`Cc1cc(N2Cc3ccc(N4CCC(C)(N)CC4)nc3[C@@H](C)C2)c2cnn(C)c2n1` [Example 59, 4-methyl-1-[(8S)-6-(1,6-dimethylpyrazolo[3,4-b]pyridin-4-yl)-8-methyl-7,8-dihydro-5H-1,6-naphthyridin-2-yl]piperidin-4-amine] and `Cc1cc(N2Cc3ccc(N4CCC(O)(CN(C)C)CC4)nc3[C@@H](C)C2)c2cnn(C)c2n1` [Example 61, 4-[(dimethylamino)methyl]-1-[(8S)-6-(1,6-dimethylpyrazolo[3,4-b]pyridin-4-yl)-8-methyl-7,8-dihydro-5H-1,6-naphthyridin-2-yl]piperidin-4-ol] are the same in IC50: 0.5 nM for the first, 0.5 nM for the second.

`C[C@H]1CN(c2ccnc3c2cnn3C)Cc2ccc(N3CCNCC3)nc21` [Example 62, (8S)-8-methyl-6-(1-methylpyrazolo[3,4-b]pyridin-4-yl)-2-piperazin-1-yl-7,8-dihydro-5H-1,6-naphthyridine] showed an IC50 of 2 nM.
